Source: ChEMBL document CHEMBL1158973, “The crystal structure and cytotoxicity of goniodiol-7-monoacetate from Goniothalamus amuyon” (1991)
≈ marks a conversion by molar mass, not a printed value. Calls of active or inactive are those of the source. The calls are words filed in the database; no cut-off is given here.

Key:
[1] = Cytotoxicity against human RPMI cells; type: functional; conditions: read-out: ED50 (the source's name)
[2] = tested on: HCT-8; assay: Cytotoxicity against human HCT8 cells at 4 ug/ml; type: functional, cell-based
[3] = tested on: KB; assay: Cytotoxicity against human KB cells; type: functional; conditions: read-out: ED50 (the source's name)
[4] = tested on: P388; assay: Cytotoxicity against mouse P388 cells; type: functional; conditions: read-out: ED50 (the source's name)
[5] = tested on: TE-671; assay: Cytotoxicity against human TE671 cells; type: functional; conditions: read-out: ED50 (the source's name)
[6] = tested on: A549; assay: Cytotoxicity against human A549 cells at 4 ug/ml; type: functional, cell-based
[7] = tested on: A549; assay: Cytotoxicity against human A549 cells; type: functional; conditions: read-out: ED50 (the source's name)

Compound	EC50 [1]	Activity [2]	EC50 [3]	EC50 [4]	EC50 [5]	Activity [6]	EC50 [7]
CC(=O)O[C@H]([C@H](O)c1ccccc1)[C@H]1CC=CC(=O)O1	< 0.1 µg/mL	inactive	< 0.1 µg/mL	< 0.1 µg/mL	< 0.1 µg/mL	inactive	
O=C1C=CC[C@H]([C@H](O)[C@H](O)c2ccccc2)O1 [GONIODIOL]							0.12 µg/mL (≈ 0.512 µM)
